Measured values published in article PMC8524670 (Pharmacology Research & Perspectives, 2021).

Tests used:
[1] = molecular target: T1, CYP2D6 (Homo sapiens, UniProt P10635); experiment: Time-dependent CYP inhibition in HLMs; settings: 10 µM zanubrutinib, 30 min pre-incubation with HLMs and NADPH
[2] = tested on: CYP2C9; experiment: CYP induction in human hepatocytes; format: in vitro ADME
[3] = molecular target: T2, OCT2 (Homo sapiens, UniProt O15244); experiment: SLC transportation assay in HEK293 cells; format: in vitro ADME; settings: uptake ratios <2 at 0.1, 0.3, 5 µM
T2 sequence (O15244 1-555): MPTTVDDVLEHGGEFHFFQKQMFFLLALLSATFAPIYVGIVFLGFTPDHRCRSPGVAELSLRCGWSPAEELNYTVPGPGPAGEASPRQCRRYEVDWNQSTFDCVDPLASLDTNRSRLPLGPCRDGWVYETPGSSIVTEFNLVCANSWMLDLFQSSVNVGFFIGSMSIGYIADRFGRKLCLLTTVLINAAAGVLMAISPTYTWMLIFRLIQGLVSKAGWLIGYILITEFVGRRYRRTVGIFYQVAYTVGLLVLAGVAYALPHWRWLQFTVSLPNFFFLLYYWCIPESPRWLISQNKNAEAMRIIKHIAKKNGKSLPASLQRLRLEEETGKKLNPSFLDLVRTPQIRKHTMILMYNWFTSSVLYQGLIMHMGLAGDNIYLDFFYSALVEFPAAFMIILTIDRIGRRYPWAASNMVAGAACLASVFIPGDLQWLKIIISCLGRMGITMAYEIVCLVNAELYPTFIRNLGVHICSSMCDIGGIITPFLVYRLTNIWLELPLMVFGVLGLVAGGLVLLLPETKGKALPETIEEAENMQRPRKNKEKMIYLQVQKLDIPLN

[4] = molecular target: T3, OATP1B1 (Homo sapiens, UniProt Q9Y6L6); experiment: SLC transportation assay in HEK293 cells; format: in vitro ADME; settings: uptake ratios <2 at 0.1, 0.3, 5 µM
T3 sequence (Q9Y6L6 1-691): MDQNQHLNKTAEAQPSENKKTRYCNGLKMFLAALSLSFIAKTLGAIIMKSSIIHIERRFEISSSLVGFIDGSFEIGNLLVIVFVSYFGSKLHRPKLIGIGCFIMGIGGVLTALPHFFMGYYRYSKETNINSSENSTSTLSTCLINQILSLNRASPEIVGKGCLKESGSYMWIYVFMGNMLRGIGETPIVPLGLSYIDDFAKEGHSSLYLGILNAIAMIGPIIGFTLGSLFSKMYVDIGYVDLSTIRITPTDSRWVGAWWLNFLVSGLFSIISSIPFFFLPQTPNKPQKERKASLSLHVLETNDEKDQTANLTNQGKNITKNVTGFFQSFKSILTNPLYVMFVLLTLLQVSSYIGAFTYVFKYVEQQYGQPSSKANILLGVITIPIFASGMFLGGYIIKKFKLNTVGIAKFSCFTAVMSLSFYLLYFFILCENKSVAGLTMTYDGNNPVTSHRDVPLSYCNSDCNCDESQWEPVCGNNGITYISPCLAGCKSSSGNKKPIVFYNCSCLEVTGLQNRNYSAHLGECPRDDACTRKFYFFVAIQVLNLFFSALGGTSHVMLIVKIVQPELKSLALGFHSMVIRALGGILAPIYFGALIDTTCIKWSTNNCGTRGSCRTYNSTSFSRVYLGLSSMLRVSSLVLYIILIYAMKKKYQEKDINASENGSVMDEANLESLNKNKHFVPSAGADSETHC

[5] = tested on: CYP2C9; settings: coadministration of zanubrutinib; cited from earlier work
[6] = molecular target: T1, CYP2D6; experiment: CYP reversible inhibition in HLMs; format: in vitro ADME
[7] = molecular target: T4, CYP2C8 (Homo sapiens, UniProt P10632); experiment: CYP reversible inhibition in HLMs; settings: amodiaquine
T4 sequence (P10632 1-490): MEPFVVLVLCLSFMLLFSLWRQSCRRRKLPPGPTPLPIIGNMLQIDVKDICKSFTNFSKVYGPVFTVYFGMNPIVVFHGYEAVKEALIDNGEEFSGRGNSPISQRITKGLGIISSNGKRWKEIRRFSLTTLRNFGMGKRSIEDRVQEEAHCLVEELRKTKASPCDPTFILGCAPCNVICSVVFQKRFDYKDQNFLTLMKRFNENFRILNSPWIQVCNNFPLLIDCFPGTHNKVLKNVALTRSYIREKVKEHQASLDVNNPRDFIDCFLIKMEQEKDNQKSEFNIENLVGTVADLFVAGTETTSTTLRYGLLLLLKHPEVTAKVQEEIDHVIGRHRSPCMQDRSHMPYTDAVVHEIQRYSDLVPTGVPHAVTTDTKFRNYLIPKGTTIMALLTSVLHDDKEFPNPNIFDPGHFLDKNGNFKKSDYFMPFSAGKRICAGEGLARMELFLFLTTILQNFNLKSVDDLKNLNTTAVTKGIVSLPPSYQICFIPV

[8] = molecular target: T5, OAT3 (Homo sapiens, UniProt Q8TCC7); experiment: SLC transportation assay in HEK293 cells; format: in vitro ADME; settings: uptake ratios <2 at 0.1, 0.3, 5 µM
T5 sequence (Q8TCC7 1-542): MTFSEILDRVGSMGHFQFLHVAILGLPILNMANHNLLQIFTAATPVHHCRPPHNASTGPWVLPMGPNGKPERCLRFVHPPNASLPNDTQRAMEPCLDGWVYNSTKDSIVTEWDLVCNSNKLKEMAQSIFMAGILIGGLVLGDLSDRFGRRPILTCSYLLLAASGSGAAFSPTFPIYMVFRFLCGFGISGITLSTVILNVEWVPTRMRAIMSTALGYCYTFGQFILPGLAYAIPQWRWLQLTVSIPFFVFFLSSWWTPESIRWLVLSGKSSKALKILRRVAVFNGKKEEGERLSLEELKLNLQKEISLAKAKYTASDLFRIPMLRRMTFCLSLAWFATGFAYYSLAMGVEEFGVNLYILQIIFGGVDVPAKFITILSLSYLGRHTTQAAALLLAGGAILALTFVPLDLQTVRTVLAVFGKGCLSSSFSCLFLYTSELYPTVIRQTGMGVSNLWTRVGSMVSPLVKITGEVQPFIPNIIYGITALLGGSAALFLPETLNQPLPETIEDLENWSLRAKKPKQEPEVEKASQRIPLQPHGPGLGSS

[9] = tested on: CYP2C8; experiment: CYP induction in human hepatocytes; format: in vitro ADME
[10] = molecular target: T2, OCT2; experiment: SLC inhibition assay in HEK293 cells; format: in vitro ADME
[11] = DDI basic model value for induction
[12] = human, cryopreserved human hepatocytes
[13] = static model term, induction in liver
[14] = human, HEK293 cells overexpressing OCT2 (and MOCK cells), probe metformin

T1 sequence (P10635 whole entry): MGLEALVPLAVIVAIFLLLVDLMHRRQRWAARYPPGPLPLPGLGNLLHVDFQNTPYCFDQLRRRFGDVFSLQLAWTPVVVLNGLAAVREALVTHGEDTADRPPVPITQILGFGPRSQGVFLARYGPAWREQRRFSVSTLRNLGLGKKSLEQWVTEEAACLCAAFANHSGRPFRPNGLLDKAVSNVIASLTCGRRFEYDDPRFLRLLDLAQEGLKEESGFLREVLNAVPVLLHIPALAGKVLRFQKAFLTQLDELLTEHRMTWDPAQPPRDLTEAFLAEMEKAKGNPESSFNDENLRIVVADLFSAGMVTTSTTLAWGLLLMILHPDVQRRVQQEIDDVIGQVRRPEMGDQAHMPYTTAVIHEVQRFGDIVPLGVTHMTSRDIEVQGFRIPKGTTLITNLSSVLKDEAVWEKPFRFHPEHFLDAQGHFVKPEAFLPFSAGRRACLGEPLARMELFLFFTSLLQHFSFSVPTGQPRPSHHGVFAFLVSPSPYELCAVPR

**Q.** Which “Percent loss of enzymatic activity” value [1] does the source give for C=CC(=O)N1CCC([C@@H]2CCNc3c(C(N)=O)c(-c4ccc(Oc5ccccc5)cc4)nn32)CC1 [zanubrutinib] here?
**A.** Its value is −14.6%.

**Q.** What about the EC50 at 3 days [2, 12] of the same compound?
**A.** Its EC50 at 3 days is […].

**Q.** What about the Substrate status [3] of the same compound?
**A.** Its Substrate status is “unlikely to be a substrate”.

**Q.** And the Substrate status [4]?
**A.** The Substrate status was “unlikely to be a substrate”.

**Q.** And the “Effect on the clinical PK of warfarin” value [5]?
**A.** Its value is “no remarkable effect”.

**Q.** And the IC50 [6]?
**A.** Its IC50 is 72.9 µM.

**Q.** What about the Ki ([6]; Ki, dextromethorphan, Ki = IC50/2) of the same compound?
**A.** Its Ki is 36.5 µM.

**Q.** What about the Ki ([6]; Kiu, dextromethorphan, unbound Ki) of the same compound?
**A.** Its Ki is 28.8 µM.

**Q.** And the R1 ([6]; dextromethorphan, DDI basic model, hepatic)?
**A.** Its R1 is 1.00.

**Q.** And the Ah ([6]; dextromethorphan, static model term, liver inhibition)?
**A.** The Ah was 1.00.

**Q.** What about the R1 ([7]; DDI basic model, hepatic) of the same compound?
**A.** The R1 was 1.05.

**Q.** And the Ah ([7]; static model term, liver inhibition)?
**A.** Its Ah is 0.95.

**Q.** And the Substrate status [8]?
**A.** The Substrate status was “unlikely to be a substrate”.

**Q.** And the EC50 at 3 days [9, 12]?
**A.** The EC50 at 3 days was […].

**Q.** What about the IC50 [10] of the same compound?
**A.** The IC50 was roughly 4.5 µM.

**Q.** What about the activity at 0.05 µM [10, 14] of the same compound?
**A.** The activity at 0.05 µM was 107 ± 10%.

**Q.** And the activity at 0.2 µM [10, 14]?
**A.** Its activity at 0.2 µM is 339 ± 5.7%.

**Q.** And the activity at 1 µM [10, 14]?
**A.** Its activity at 1 µM is 178 ± 36%.

**Q.** What about the activity at 5 µM [10, 14] of the same compound?
**A.** The activity at 5 µM was 48.4 ± 5.2%.

**Q.** And the Inhibitor status ([10]; up to 5.0 μM)?
**A.** The Inhibitor status was “marginal inhibitor”.
